Test results taken from patent US20240150368A1, “ULK INHIBITORS AND METHODS OF USE THEREOF” (Deciphera Pharmaceuticals, LLC, priority 2022, published 2024).

Tested on: ULK kinase substrate ATG13 (pS318-ATG13) in T24 cells
Assay: pATG13 levels of mutant HRas T24 cells after treatment with ULK inhibitors in combination with trametinib (ELISA)
Type: cell-based, human
Conditions: in combination with trametinib 250 nM
Procedure: pATG13 Levels of Mutant HRas T24 Cells after Treatment with ULK Inhibitors in Combination with Trametinib
T24 human urinary bladder cancer cells (25000 cells/well) were added to a 96-well tissue-culture treated plate in 100 μL of pre-warmed DMEM medium supplemented with 10% characterized fetal bovine serum (Invitrogen, Carlsbad, CA), 100 units/mL penicillin G, and 100 μg/mL streptomycin and allowed to grow overnight at 37° C., 5% CO2, and 95% humidity. The following day, 100 μL of media containing trametinib or DMSO as a control was added to wells. The final concentration of trametinib in wells was 250 nM. A dose response of a test compound (0.5 μL per well) was added. DMSO (0.5 μL) was added to control wells. The plate was briefly shaken to mix wells and then incubated at 37° C. overnight. The next day, the media was aspirated and cells were washed with Dulbecco's Phosphate Buffered Saline (Gibco). Cells were lysed using MPER lysis buffer (Pierce, Rockford, IL) containing Halt Phosphatase and Protease Inhibitors (Pierce, Rockford, IL) and Phosphatase inhibitor cocktail 2 (Sigma, St. Louis, MO) at 4° C. for 10 min with shaking.
Cellular levels of phospho-Serine 318 ATG13 (pATG13) were measured via an ELISA method. Total ATG13 Antibody (Cell Signaling Cat #13273) was used to coat the wells. The plate was incubated at 4° C. overnight and washed with ELISA wash buffer (Biolegend Cat #421601). The wells were then blocked with assay diluent (Biolegend Cat #421203) for 1 h at rt. Plate wells were washed with ELISA wash buffer. Cell lysate was added to wells and incubated at rt for 2 h. Plate wells were washed with ELISA wash buffer. Biotinylated pS318-ATG13 antibody (Rockland Immunochemicals Cat #600-401-C49) was diluted in assay diluent and added to each well and incubated at rt for 1 h. Plate wells were washed with ELISA wash buffer. Streptavidin linked to horseradish peroxidase (Thermo Fisher Cat #21140) was diluted in assay diluent and added to each well and incubated at rt for 1 h. Plate wells were washed with ELISA wash buffer. High sensitivity TMB substrate (Biolegend Cat #421101) was added to each well and incubated at rt for 20 min. The reaction was stopped with 2.0N sulfuric acid. The plate was analyzed at on a plate reader measuring absorbance at 450 nm and 540 nm (background). Signal was calculated by first subtracting the background absorbance at 540 nm from the absorbance at 450 nm for each well. Next, the background corrected absorbance at 450 nm from blank wells was subtracted from test wells. Data was compared to control wells to determine % ATG13 phosphorylation. GraphPad Prism was used to calculate IC50 values.

| SMILES | IC50 [nM] |
| --- | --- |
| CC/C(Nc1cnn(C2CCN(C(C)C)CC2)c1)=C1/C(=O)Nc2ccc(C(=O)N(C)CC(F)(F)F)cc21 [Example 7] | ≤ 100 |
| CC/C(Nc1cnn(C2CCN(C(C)C)CC2)c1)=C1/C(=O)Nc2ccc(C(=O)NCC(F)(F)F)cc21 [Example 8] | ≤ 100 |
| CC/C(Nc1cnn(C2CCN(C(C)C)CC2)c1)=C1/C(=O)Nc2ccc(C(=O)N(C)CCOC)cc21 [Example 9] | 100 to 300 |
| CC/C(Nc1cnn(C2CCN(C(C)C)CC2)c1)=C1/C(=O)Nc2ccc(C(=O)NCC(C)C)cc21 [Example 16] | ≤ 100 |
| CC/C(Nc1cnn(C2CCN(C(C)C)CC2)c1)=C1/C(=O)Nc2ccc(C(=O)NCCOC)cc21 [Example 98] | ≤ 100 |

Target: T1, LRRK2 kinase (Homo sapiens, UniProt Q5S007)
T1 construct: (residues 970-2528; ID NO; 3); purchased Thermo Fisher
Assay: Biochemical assay for LRRK2 (coupled pyruvate kinase/lactate dehydrogenase assay)
Conditions: 26.4 nM LRRK2, 1 mM ATP; read-out: LRRK2 (inhibition of LRRK2 kinase activity, IC50)
Procedure: Biochemical Assay for LRRK2 (SEQ. ID NO. 3)
Activity of LRRK2 kinase was determined spectroscopically using a coupled pyruvate kinase/lactate dehydrogenase assay that continuously monitors the ATP hydrolysis-dependent oxidation of NADH (e.g., Schindler et al. Science (2000) 289: 1938-1942). Assays were conducted in 384-well plates (100 μL final volume) using 26.4 nM LRRK2 (Thermo Fisher), 0.1 mM peptide substrate (RLGRDKYKTLRQIRQ), 1.5 units pyruvate kinase, 2.1 units lactate dehydrogenase, 1 mM phosphoenol pyruvate, 0.28 mM NADH and 1 mM ATP in assay buffer (100 mM Tris, pH 7.5, 15 mM MgCl2, 0.5 mM DTT, 0.004% (w/v) BSA, and 0.004% Triton X-100). Inhibition of LRRK2 was measured by adding serial diluted test compound (final assay concentration of 1% DMSO). A decrease in absorption at 340 nm was monitored continuously for 6 h at 30° C. on a multi-mode microplate reader (BioTek). The reaction rate was calculated using the 2-3 h time frame. The reaction rate at each concentration of compound was converted to percent inhibition using controls (i.e., reaction with no test compound and reaction with a known inhibitor) and IC50 values were calculated using software routines in Prism (GraphPad software).

T1 sequence (Q5S007 with tags, fused parts or gaps): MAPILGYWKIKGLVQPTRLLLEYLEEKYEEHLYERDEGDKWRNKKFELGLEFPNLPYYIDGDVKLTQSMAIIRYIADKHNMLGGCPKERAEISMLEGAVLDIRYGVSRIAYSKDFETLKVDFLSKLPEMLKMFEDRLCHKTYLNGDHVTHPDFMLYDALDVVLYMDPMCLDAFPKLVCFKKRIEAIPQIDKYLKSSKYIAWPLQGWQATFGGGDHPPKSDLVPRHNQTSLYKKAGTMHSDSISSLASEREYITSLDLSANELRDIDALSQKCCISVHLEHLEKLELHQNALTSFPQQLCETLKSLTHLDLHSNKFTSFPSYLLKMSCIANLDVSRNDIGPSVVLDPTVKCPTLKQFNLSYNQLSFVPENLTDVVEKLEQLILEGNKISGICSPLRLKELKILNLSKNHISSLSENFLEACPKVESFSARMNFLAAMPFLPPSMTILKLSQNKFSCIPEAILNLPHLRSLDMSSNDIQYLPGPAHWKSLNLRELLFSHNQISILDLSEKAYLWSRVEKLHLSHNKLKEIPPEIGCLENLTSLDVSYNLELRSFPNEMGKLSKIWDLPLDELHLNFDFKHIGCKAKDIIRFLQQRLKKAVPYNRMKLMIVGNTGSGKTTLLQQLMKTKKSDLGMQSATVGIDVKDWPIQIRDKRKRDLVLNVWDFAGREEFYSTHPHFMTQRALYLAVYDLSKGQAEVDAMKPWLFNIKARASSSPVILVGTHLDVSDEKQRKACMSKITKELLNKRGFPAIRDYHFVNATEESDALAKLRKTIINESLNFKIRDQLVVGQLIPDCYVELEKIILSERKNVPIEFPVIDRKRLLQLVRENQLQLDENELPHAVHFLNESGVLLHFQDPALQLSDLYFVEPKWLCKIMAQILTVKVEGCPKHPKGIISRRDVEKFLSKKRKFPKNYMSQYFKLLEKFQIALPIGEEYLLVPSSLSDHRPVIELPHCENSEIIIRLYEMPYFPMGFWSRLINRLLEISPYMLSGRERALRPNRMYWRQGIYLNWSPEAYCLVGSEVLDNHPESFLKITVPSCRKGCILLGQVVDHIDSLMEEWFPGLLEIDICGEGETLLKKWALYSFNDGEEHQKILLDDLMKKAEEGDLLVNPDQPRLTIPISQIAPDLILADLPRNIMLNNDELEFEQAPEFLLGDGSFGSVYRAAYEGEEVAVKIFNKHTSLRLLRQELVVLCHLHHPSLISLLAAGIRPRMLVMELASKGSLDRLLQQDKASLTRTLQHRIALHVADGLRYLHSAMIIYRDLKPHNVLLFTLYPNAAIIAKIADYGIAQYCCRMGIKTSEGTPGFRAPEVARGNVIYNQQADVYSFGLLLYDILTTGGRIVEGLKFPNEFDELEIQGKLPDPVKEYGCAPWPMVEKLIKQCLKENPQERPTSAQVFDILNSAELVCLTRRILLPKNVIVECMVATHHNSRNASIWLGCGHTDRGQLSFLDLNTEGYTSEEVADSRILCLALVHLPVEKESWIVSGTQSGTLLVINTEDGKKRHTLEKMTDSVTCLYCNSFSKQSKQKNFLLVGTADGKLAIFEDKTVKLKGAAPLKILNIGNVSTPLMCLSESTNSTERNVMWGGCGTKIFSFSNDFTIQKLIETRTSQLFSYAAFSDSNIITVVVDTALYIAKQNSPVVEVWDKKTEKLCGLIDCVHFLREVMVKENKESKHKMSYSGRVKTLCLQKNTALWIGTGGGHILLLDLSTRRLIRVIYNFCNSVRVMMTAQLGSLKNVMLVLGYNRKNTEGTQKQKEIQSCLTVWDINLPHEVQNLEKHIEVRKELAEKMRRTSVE

| SMILES | IC50 [nM] |
| --- | --- |
| CC/C(Nc1cnn(C(C)C)c1)=C1/C(=O)Nc2ccc(C(=O)NCC(F)(F)F)cc21 [Example 4, (Z)-3-(1-((1-isopropyl-1H-pyrazol-4-yl)amino)propylidene)-2-oxo-N-(2,2,2-trifluoroethyl)indoline-5-carboxamide] | ≤ 100 |
| CC/C(Nc1cnn(C2CCN(C(C)C)CC2)c1)=C1/C(=O)Nc2ccc(C(=O)NCC(F)(F)F)cc21 [Example 8] | 100 to 300 |
| CC/C(Nc1cnn(C2CCN(C(C)C)CC2)c1)=C1/C(=O)Nc2ccc(C(=O)NCCC#N)cc21 [Example 26] | 100 to 300 |
| CC/C(Nc1cnn(C2CCN(C(C)C)CC2)c1)=C1/C(=O)Nc2ccc(C(=O)NCCC(F)(F)F)cc21 [Example 31] | ≤ 100 |
| CC/C(Nc1cnn(C2CCN(C3CCOCC3)CC2)c1)=C1/C(=O)Nc2ccc(C(=O)NCC(C)C)cc21 [Example 37] | 100 to 300 |
| CC/C(Nc1ccc(N2CCN(C(C)C)CC2)cc1)=C1/C(=O)Nc2ccc(C(=O)NC[C@H]3CCCO3)cc21 [Example 47] | 100 to 300 |
| CC/C(Nc1cnn(C2CCNCC2)c1)=C1/C(=O)Nc2ccc(C(=O)NC[C@H]3CCCO3)cc21 [Example 52] | 100 to 300 |
| CC/C(Nc1cnn(C2CN(C)C2)c1)=C1/C(=O)Nc2ccc(C(=O)NC[C@H]3CCCO3)cc21 [Example 54] | 300 to 600 |
| CC/C(Nc1cnn(C)c1)=C1/C(=O)Nc2ccc(C(=O)NC[C@H]3CCCO3)cc21 [Example 55] | 100 to 300 |
| CC/C(Nc1cnn(C2CCN(C(C)C)CC2)c1)=C1/C(=O)Nc2ccc(C(=O)NC[C@@H](C)OC)cc21 [Example 58] | 300 to 600 |
| CC/C(Nc1ccc(N2CC3(CN(C)C3)C2)cc1)=C1/C(=O)Nc2ccc(C(=O)NCC(F)(F)F)cc21 [Example 62] | ≤ 100 |
| CC/C(Nc1ccc(N2CCN(C(C)C)CC2)cn1)=C1/C(=O)Nc2ccc(C(=O)NC[C@H]3CCCO3)cc21 [Example 93] | ≤ 100 |
| CC/C(Nc1cnc(N2CCN(C(C)C)CC2)cn1)=C1/C(=O)Nc2ccc(C(=O)NCC(F)(F)F)cc21 [Example 94] | 100 to 300 |
| CC/C(Nc1cnn(C(C)C)c1)=C1/C(=O)Nc2ccc(C(=O)NC[C@H]3CCCO3)cc21 [Example 95] | ≤ 100 |
| CC/C(Nc1cnn(C2CCN(C(C)C)CC2)c1)=C1/C(=O)Nc2ccc(C(=O)NCCOC)cc21 [Example 98] | 100 to 300 |
| CC/C(Nc1cnn([C@H]2CCOC2)c1)=C1/C(=O)Nc2ccc(C(=O)NCC(F)(F)F)cc21 [Example 104] | ≤ 100 |
| CC/C(Nc1cnn(CC)c1)=C1/C(=O)Nc2ccc(C(=O)NCC(F)(F)F)cc21 [Example 107] | ≤ 100 |
| CC/C(Nc1cn[nH]c1)=C1/C(=O)Nc2ccc(C(=O)NCC(F)(F)F)cc21 [Example 108] | 100 to 300 |
| CC/C(Nc1cnn(C(C)C)c1)=C1/C(=O)Nc2ccc(C(=O)NCC(F)F)cc21 [Example 112] | ≤ 100 |

| SMILES | IC50 [nM] |
| --- | --- |
| CC/C(Nc1cnn(C(F)(F)F)c1)=C1/C(=O)Nc2ccc(C(=O)NCC(F)(F)F)cc21 [Example 113] | 100 to 300 |
| CC/C(Nc1cnn(C(F)F)c1)=C1/C(=O)Nc2ccc(C(=O)NCC(F)(F)F)cc21 [Example 114] | ≤ 100 |
| CC/C(Nc1cnn(C2CC2)c1)=C1/C(=O)Nc2ccc(C(=O)NCC(F)(F)F)cc21 [Example 116] | ≤ 100 |
| CC/C(Nc1cnn(C2CCC2)c1)=C1/C(=O)Nc2ccc(C(=O)NCC(F)(F)F)cc21 [Example 117] | ≤ 100 |
| CC/C(Nc1cnn(C2COC2)c1)=C1/C(=O)Nc2ccc(C(=O)NCC(F)(F)F)cc21 [Example 118] | ≤ 100 |
| CC/C(Nc1cnn(C(C)C)c1)=C1/C(=O)Nc2ccc(C(=O)N[C@H](C)C(F)(F)F)cc21 [Example 119] | ≤ 100 |
| CC/C(Nc1cnn(C2CCN(C(C)C)CC2)c1)=C1/C(=O)Nc2ccc(C(C)=O)cc21 [Example 123] | 100 to 300 |
| CC/C(Nc1cnn(C(C)C)c1)=C1/C(=O)Nc2ccc(C(=O)N(C)CC(F)(F)F)cc21 [Example 125] | ≤ 100 |
| CC/C(Nc1cnn(C(C)C)c1)=C1/C(=O)Nc2ccc(C(=O)NCC(C)C)cc21 [Example 130] | ≤ 100 |
| CC/C(Nc1cnn(C(C)C)c1)=C1/C(=O)Nc2ccc(C(=O)NCC(C)(C)F)cc21 [Example 135] | 100 to 300 |
| CC/C(Nc1cnn(C(C)C)c1)=C1/C(=O)Nc2ccc(C(=O)NCCOC(F)(F)F)cc21 [Example 136] | 300 to 600 |
| CC/C(Nc1cnn(C(C)C)c1)=C1/C(=O)Nc2ccc(C(=O)NCC3CCC(C)(C)O3)cc21 (stereo not drawn) [Example 137] | 100 to 300 |
| CC/C(Nc1cnn(C(C)C)c1)=C1/C(=O)Nc2ccc(C(=O)NCC3(C(F)(F)F)CC3)cc21 [Example 140] | ≤ 100 |
| CC/C(Nc1ccc2nn(C(C)C)cc2c1)=C1/C(=O)Nc2ccc(C(=O)NCC(F)(F)F)cc21 [Example 142] | ≤ 100 |
| CC/C(Nc1cnn(C(C)C)c1)=C1/C(=O)Nc2ccc(C(=O)NCC3(F)CC3)cc21 [Example 152] | ≤ 100 |
| CC/C(Nc1cnn(C)c1)=C1/C(=O)Nc2ccc(C(=O)NCC3(F)CC3)cc21 [Example 154] | ≤ 100 |
| CC/C(Nc1cnn(CC(F)F)c1)=C1/C(=O)Nc2ccc(C(=O)NCC(C)(C)F)cc21 [Example 161] | 100 to 300 |
| CC/C(Nc1cnn(C2CCOCC2)c1)=C1/C(=O)Nc2ccc(C(=O)NCC(C)(C)F)cc21 [Example 173] | ≤ 100 |
